The values that follow come from ChEMBL document CHEMBL4190365, “Synthesis and antiproliferative properties of new hydrophilic esters of triterpenic acids” (Eur J Med Chem, 2017).

Calls of active or inactive are those of the source. No cut-off for these calls is given here.

Usually IC50 stands for the concentration needed to halve the response being measured.

The test system of assay [1] is G-361. Briefly: Induction of cell cycle arrest in human G361 cells assessed as increase in accumulation at subG1 phase at 1 uM incubated for 24 hrs by propidium iodide staining based flow cytometry. The assay is classed as functional. (In flow cytometry, cells or beads pass a laser one at a time.)
Assay [2] deals with G-361. As to the kind of experiment: Induction of cell cycle arrest in human G361 cells assessed as increase in accumulation at subG1 phase at 10 uM incubated for 24 hrs by propidium iodide staining based flow cytometry. The assay is classed as functional.
In assay [3] the test system is G-361. Briefly: Induction of apoptosis in human G361 cells assessed as induction of caspase-3 expression at 1 uM incubated for 24 hrs by Western blot method. The assay is classed as functional, cell-based. On the technique in general: Immunoblotting shows a protein as a band on a membrane.
In assay [4] the test system is G-361. As to the kind of experiment: Induction of cell cycle arrest in human G361 cells assessed as reduction in accumulation at G2M phase at 1 uM incubated for 24 hrs by propidium iodide staining based flow cytometry. Format: functional.
Assay [5] relates to G-361. As to the kind of experiment: Induction of cell cycle arrest in human G361 cells assessed as reduction in accumulation at G2M phase at 10 uM incubated for 24 hrs by propidium iodide staining based flow cytometry. The assay is classed as functional.
Assay [6] concerns G-361. As to the kind of experiment: Induction of apoptosis in human G361 cells assessed as effect on Bcl2 protein levels at 1 uM incubated for 24 hrs by Western blot method. The assay is classed as functional, cell-based.
Assay [7] relates to G-361. As to the kind of experiment: Induction of apoptosis in human G361 cells assessed as reduction Mcl1 protein levels at 10 uM incubated for 24 hrs by Western blot method. Format: functional, cell-based.
Assay [8] has as its system G-361. As to the kind of experiment: Induction of cell cycle arrest in human G361 cells assessed as increase in accumulation at G0/G1 phase at 10 uM incubated for 24 hrs by propidium iodide staining based flow cytometry. Format: functional.
Assay [9] concerns G-361. Briefly: Induction of apoptosis in human G361 cells assessed as induction of caspase-3 expression at 10 uM incubated for 24 hrs by Western blot method. Format: functional, cell-based.
Assay [10] has as its system G-361. Briefly: Induction of cell cycle arrest in human G361 cells assessed as increase in accumulation at G0/G1 phase at 1 uM incubated for 24 hrs by propidium iodide staining based flow cytometry. The assay is classed as functional.
Assay [11] relates to G-361. Briefly: Induction of apoptosis in human G361 cells assessed as reduction total Rb protein levels at 10 uM incubated for 24 hrs by Western blot method. The assay is classed as functional, cell-based.
Assay [12] relates to G-361. Briefly: Induction of apoptosis in human G361 cells assessed as reduction Mcl1 protein levels at 1 uM incubated for 24 hrs by Western blot method. The assay is classed as functional, cell-based.
The subject of assay [13] is G-361. As to the kind of experiment: Induction of apoptosis in human G361 cells assessed as effect on Bcl2 protein levels at 10 uM incubated for 24 hrs by Western blot method. The assay is classed as functional, cell-based.
Assay [14] has as its system G-361. As to the kind of experiment: Induction of apoptosis in human G361 cells assessed as induction of PARP cleavage at 10 uM incubated for 24 hrs by Western blot method. The assay is classed as functional, cell-based.
A further assay concerns BJ. As to the kind of experiment: Cytotoxicity in human BJ cells assessed as reduction in cell viability incubated for 72 hrs by calcein AM cytotoxicity assay. Format: functional, cell-based. The conditions noted are these: Homo sapiens, BJ, 72 h.
Another assay deals with CCRF-CEM. Briefly: Cytotoxicity in human CEM cells assessed as reduction in cell viability incubated for 72 hrs by calcein AM cytotoxicity assay. The assay is classed as functional, cell-based.
Assay [15] relates to G-361. As to the kind of experiment: Induction of apoptosis in human G361 cells assessed as increase in caspase3/7 activity at 1 uM using Ac-DEVD-AMC substrate incubated for 24 hrs by fluorometric assay relative to untreated control. Format: functional.
The subject of assay [16] is G-361. Briefly: Induction of apoptosis in human G361 cells assessed as induction of caspase-7 degradation in to cleaved fragments at 10 uM incubated for 24 hrs by Western blot method. Format: functional, cell-based.
For assay [17], the system named is G-361. As to the kind of experiment: Cytotoxicity in human G361 cells assessed as reduction in cell viability incubated for 72 hrs by calcein AM cytotoxicity assay. Format: functional, cell-based. The conditions noted are these: Homo sapiens, G-361, 72 h.
The subject of assay [18] is G-361. Briefly: Induction of apoptosis in human G361 cells assessed as increase in caspase3/7 activity at 10 uM using Ac-DEVD-AMC substrate incubated for 24 hrs by fluorometric assay relative to untreated control. Format: functional.
Assay [19] relates to G-361. Briefly: Induction of apoptosis in human G361 cells assessed as induction of caspase-7 degradation in to cleaved fragments at 1 uM incubated for 24 hrs by Western blot method. Format: functional, cell-based.
A further assay concerns HeLa. As to the kind of experiment: Cytotoxicity in human HeLa cells assessed as reduction in cell viability incubated for 72 hrs by calcein AM cytotoxicity assay. The assay is classed as functional, cell-based. To be noted: Homo sapiens, HeLa, 72 h.
The test system of the next assay is MCF7. Briefly: Cytotoxicity in human MCF7 cells assessed as reduction in cell viability incubated for 72 hrs by calcein AM cytotoxicity assay. To be noted: Homo sapiens, MCF7, 72 h. The assay is classed as functional, cell-based.

`CC(=O)O[C@H]1CC[C@]2(C)[C@H]3CC[C@@H]4C5=C(C(C)C)C(=O)C[C@]5(C(=O)OCCN5CCCCC5)CC[C@@]4(C)[C@]3(C)CC[C@H]2C1(C)C` [listing 1 of 2 here]: the result in the assay with G-361 [1], with G-361 [2], in the assay on G-361 [4], in the assay with G-361 [5], in the assay with G-361 [7] and in the assay with G-361 [8] was Active. Also, the outcome with G-361 [10], with G-361 [11], with G-361 [12] and with G-361 [14] was Active. Also, the outcome in the assay on G-361 [3], in the assay on G-361 [6], with G-361 [9] and in the assay on G-361 [13] was inactive.

On to `C=C(C)[C@@H]1CC[C@]2(C(=O)O[C@@H]3O[C@H](COC(C)=O)[C@H](OC(C)=O)[C@H](OC(C)=O)[C@H]3OC(C)=O)CC[C@]3(C)[C@H](CC[C@@H]4[C@@]5(C)CC[C@H](O)C(C)(C)[C@@H]5CC[C@]43C)[C@@H]12`, for which the result in the assay on G-361 [1], with G-361 [2], in the assay with G-361 [4], with G-361 [5], in the assay with G-361 [16] and in the assay on G-361 [7] was Active. In addition, the result in the assay with G-361 [8], in the assay on G-361 [10], in the assay with G-361 [11], with G-361 [12], in the assay with G-361 [19] and in the assay on G-361 [14] was Active. Moreover, the IC50 is over 50 µM with BJ; 9 µM with CCRF-CEM (Homo sapiens, CCRF-CEM, 72 h); 3.4 µM in the assay on G-361 [17]; 3.3 µM in the assay with HeLa; 2.5 µM with MCF7. Also, the result in the assay with G-361 [3], in the assay with G-361 [15], in the assay with G-361 [6], in the assay with G-361 [9], in the assay with G-361 [18] and in the assay with G-361 [13] was inactive.

As for `CC(=O)O[C@H]1CC[C@]2(C)[C@H]3CC[C@@H]4C5=C(C(C)C)C(=O)C[C@]5(C(=O)OCCN5CCCCC5)CC[C@@]4(C)[C@]3(C)CC[C@H]2C1(C)C` [listing 2 of 2 here], the IC50 is 49.1 µM with BJ; 16.2 µM in the assay with CCRF-CEM (ccrf-cem); 7 µM in the assay on G-361 [17]; 8.7 µM with HeLa; 7 µM in the assay on MCF7. For the same compound, the “fold change (FC)” value with G-361 [18] is on record as “<=4”.

Regarding `CC(=O)O[C@H]1CC[C@]2(C)[C@H]3CC[C@@H]4C5=C(C(C)C)C(=O)C[C@]5(C(=O)OCC(=O)OCc5ccccc5)CC[C@@]4(C)[C@]3(C)CC[C@H]2C1(C)C`, the outcome with G-361 [1], in the assay with G-361 [2], with G-361 [4], in the assay on G-361 [5], in the assay with G-361 [16] and in the assay with G-361 [7] was Active. Moreover, the outcome with G-361 [8], in the assay on G-361 [10], with G-361 [11], in the assay with G-361 [12], with G-361 [19] and in the assay on G-361 [14] was Active. For the same compound, the IC50 with BJ is over 50 µM; in the assay with CCRF-CEM (Homo sapiens, CCRF-CEM, 72 h) it was 6 µM; with G-361 [17], 1.6 µM; in the assay with HeLa it was 2.8 µM; in the assay on MCF7, 1.8 µM. Also, the outcome in the assay with G-361 [3], in the assay with G-361 [6], in the assay with G-361 [9] and with G-361 [13] was inactive. The “fold change (FC)” value in the assay with G-361 [15] was 3.
